Type in all cases: in vivo
Data set [1] relates to Monocotyledonous and dicotyledonous weed. The experiment in a line: Post-emergence test experiment, weed control effect (Table 2). Further details: key to weed control effect, Setaria viridis (level) / weed control effect, Rorippa indica (level) / weed control effect, Abutilon theophrasti (level) / weed control effect, Echinochloa crus-galli (level) / weed control effect, Digitaria sanguinalis (level): Level 10: completely dead; Level 9: above 90% growth inhibition rate; Level 8: above 80% growth inhibition rate; Level 7: above 70% growth inhibition rate; Level 6: above 60% growth inhibition rate; Level 5: above 50% growth inhibition rate; Level 4: above 30% growth inhibition rate; Level 3: above 20% growth inhibition rate; Level 2: above 10% growth inhibition rate; Level 1: above 1-10% growth inhibition rate; Level 0: no effect. The note with it: 3 weeks after spraying, greenhouse. Put shortly: (§1)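 Compounds, dissolved in acetone, mixed with Tween 80 and diluted in water, were sprayed post-emergence onto greenhouse-grown weeds and crops at the 2-3 leaf stage (2-3 weeks post-sowing). Plants then grown 3 more weeks in the greenhouse before evaluation.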

In data set [2] the test system is main crop (wheat, corn, rice, soybean, cotton, oilseed, millet and sorghum). The experiment in a line: Post-emergence test experiment, main crops (Table 2). Set-up: key: Level 10: completely dead; Level 9: above 90% growth inhibition rate; Level 8: above 80% growth inhibition rate; Level 7: above 70% growth inhibition rate; Level 6: above 60% growth inhibition rate; Level 5: above 50% growth inhibition rate; Level 4: above 30% growth inhibition rate; Level 3: above 20% growth inhibition rate; Level 2: above 10% growth inhibition rate; Level 1: above 1-10% growth inhibition rate; Level 0: no effect. The note with it: 3 weeks after spraying, greenhouse. Put shortly: as §1

A further data set concerns Scirpus juncoides. Nature of the data set: Weed control effect evaluation in transplanted rice field. The note with it: transplanted rice field pot test, 14 days after treatment. Set-up: key: Level 10: completely dead; Level 9: above 90% growth inhibition rate; Level 8: above 80% growth inhibition rate; Level 7: above 70% growth inhibition rate; Level 6: above 60% growth inhibition rate; Level 5: above 50% growth inhibition rate; Level 4: above 30% growth inhibition rate; Level 3: above 20% growth inhibition rate; Level 2: above 10% growth inhibition rate; Level 1: above 1-10% growth inhibition rate; Level 0: no effect. The procedure: (§2) Rice field soil was loaded into a 1/1,000,000 ha pot. The seeds of Echinochloa, Scirpus juncoides, Bidens tripartite and Sagittaria trifolia were sowed and gently covered with soil, then left to stand still in greenhouse in the state of 0.5-1 cm of water storage. The tuber of Sagittaria trifolia was planted in the next day or 2 days later. It was kept at 3-4 cm of water storage thereafter. The weeds were treated by dripping the WP or SC water diluents prepared according to the common preparation method of the compounds of the present invention with pipette homogeneously to achieve specified effective amount when Echinochloa, Scirpus juncoides and Bidens tripartite reached 0.5 leaf stage and Sagittaria trifolia reached the time point of primary leaf stage.
(§3) The fertility condition of Echinochloa, Scirpus juncoides, Bidens tripartite and Sagittaria trifolia 14 days after the treatment of the compound of the invention and the fertility condition of rice 21 days after the treatment of the compound of the invention respectively with the naked eye.
(§4) The seeds of Echinochloa crus-galli, Scirpus juncoides and Monochoria vaginalis were collected from Heilongjing and Jiangsu Province of China.

A further data set concerns Monochoria vaginalis. The data set is described as above. Set-up: key: Level 10: completely dead; Level 9: above 90% growth inhibition rate; Level 8: above 80% growth inhibition rate; Level 7: above 70% growth inhibition rate; Level 6: above 60% growth inhibition rate; Level 5: above 50% growth inhibition rate; Level 4: above 30% growth inhibition rate; Level 3: above 20% growth inhibition rate; Level 2: above 10% growth inhibition rate; Level 1: above 1-10% growth inhibition rate; Level 0: no effect. The note with it: transplanted rice field pot test, 14 days after treatment. The procedure:
as §2, §3, §4

A further data set relates to Echinochloa crus-galli. The data set is described as above. Set-up: key: Level 10: completely dead; Level 9: above 90% growth inhibition rate; Level 8: above 80% growth inhibition rate; Level 7: above 70% growth inhibition rate; Level 6: above 60% growth inhibition rate; Level 5: above 50% growth inhibition rate; Level 4: above 30% growth inhibition rate; Level 3: above 20% growth inhibition rate; Level 2: above 10% growth inhibition rate; Level 1: above 1-10% growth inhibition rate; Level 0: no effect. The note with it: transplanted rice field pot test, 14 days after treatment. How it is done:
as §2, §3, §4

The subject of the next data set is Rice. Nature of the data set: Transplanted rice safety evaluation. Set-up: key: Level 10: completely dead; Level 9: above 90% growth inhibition rate; Level 8: above 80% growth inhibition rate; Level 7: above 70% growth inhibition rate; Level 6: above 60% growth inhibition rate; Level 5: above 50% growth inhibition rate; Level 4: above 30% growth inhibition rate; Level 3: above 20% growth inhibition rate; Level 2: above 10% growth inhibition rate; Level 1: above 1-10% growth inhibition rate; Level 0: no effect. The note with it: transplanted 3 leaf stage japonica rice, 21 days after treatment. How it is done:
In addition, the rice field soil that loaded into the 1/1,000,000 ha pot was leveled to keep water storage at 3-4 cm depth. The 3 leaf stage rice (japonica rice) was transplanted at 3 cm of transplanting depth the next day. The compound of the present invention was treated by the same way after 5 days of transplantation. The fertility condition of Echinochloa, Scirpus juncoides, Bidens tripartite and Sagittaria trifolia 14 days after the treatment of the compound of the invention and the fertility condition of rice 21 days after the treatment of the compound of the invention respectively with the naked eye.

Results on six molecules are retold here after patent US10556888B2, “Pyrazole compounds or salts thereof, preparation methods therefor, herbicidal compositions and use thereof” (QINGDAO KINGAGROOT CHEMICAL COMPOUNDS CO., LTD, priority 2015, dated 2020).

Consider `Cc1nn(C)cc1C(=O)Oc1c(C(=O)c2ccc(S(C)(=O)=O)c(Cn3cc(Cl)cn3)c2Cl)c(C2CC2)nn1C` [Compound 10], for which, in data set [1] (120 g/ha), the “weed control effect, Abutilon theophrasti (level)” value is on record as 7 (Level 7: above 70% growth inhibition rate); the “weed control effect, Bidens pilosa (level)” value was 9 (Level 9: above 90% growth inhibition rate); the “weed control effect, Digitaria sanguinalis (level)” value was 2 (Level 2: above 10% growth inhibition rate); the “weed control effect, Echinochloa crus-galli (level)” value is reported as 10. In data set [1] (120 g/ha), the “weed control effect, Rorippa indica (level)” value was determined as 10 and the “weed control effect, Setaria viridis (level)” value is given as 7 (Level 7: above 70% growth inhibition rate). Besides, in data set [2] (120 g/ha), the “effect on crop, corn (level)” value stood at 0; the “effect on crop, rice (level)” value is 1 (Level 1: above 1-10% growth inhibition rate); the “effect on crop, wheat (level)” value is 0. Moreover, the “Weed control effect, Scirpus juncoides (activity level)” value (shortened to “Weed control effect, Scirpus juncoides”) in the data set with Scirpus juncoides (application rate 500 g/ha) turned out to be 10. Moreover, in the data set on Monochoria vaginalis (application rate 500 g/ha), the “Weed control effect, Monochoria vaginalis (activity level)” value was found to be 10. Further, in the data set on Echinochloa crus-galli (application rate 500 g/ha), the “Weed control effect, Echinochloa crus-galli (activity level)” value worked out at 10. For the same molecule, the “Rice (safety, activity level)” value in the data set with Rice (application rate 500 g/ha) is reported as 1 (Level 1: above 1-10% growth inhibition rate).
For the molecule `CCOc1c(C(=O)Oc2c(C(=O)c3ccc(S(C)(=O)=O)c(Cn4ccc(C)n4)c3Cl)cnn2C)cnn1C` [Compound 24], in data set [1] (120 g/ha), the “weed control effect, Abutilon theophrasti (level)” value is given as 6 (Level 6: above 60% growth inhibition rate); the “weed control effect, Bidens pilosa (level)” value is recorded as 6 (Level 6: above 60% growth inhibition rate); the “weed control effect, Digitaria sanguinalis (level)” value is given as 1 (Level 1: above 1-10% growth inhibition rate); the “weed control effect, Echinochloa crus-galli (level)” value is 9 (Level 9: above 90% growth inhibition rate). Also, in data set [1] (120 g/ha), the “weed control effect, Rorippa indica (level)” value was 4 (Level 4: above 30% growth inhibition rate) and the “weed control effect, Setaria viridis (level)” value is listed as 2 (Level 2: above 10% growth inhibition rate). Further, in data set [2] (120 g/ha), the “effect on crop, corn (level)” value amounted to 0; the “effect on crop, rice (level)” value came to 0; the “effect on crop, wheat (level)” value is reported as 0. Besides, the “Weed control effect, Scirpus juncoides” value in the data set with Scirpus juncoides (application rate 60 g/ha) was determined as 10. Moreover, the “Weed control effect, Monochoria vaginalis (activity level)” value with Monochoria vaginalis (application rate 60 g/ha) is recorded as 9 (Level 9: above 90% growth inhibition rate). Besides, in the data set with Echinochloa crus-galli (application rate 60 g/ha), the “Weed control effect, Echinochloa crus-galli (activity level)” value was 10. Further, in the data set with Rice (application rate 60 g/ha), the “Rice (safety, activity level)” value is reported as 1 (Level 1: above 1-10% growth inhibition rate).
In the case of `COCC(C)OCc1c(S(C)(=O)=O)ccc(C(=O)c2c(C)nn(C)c2OC(=O)c2cn(C)nc2C)c1Cl` (stereo not drawn) [Compound 36], in data set [1] (60 g/ha), the “weed control effect, Abutilon theophrasti (level)” value came out at 10; the “weed control effect, Bidens pilosa (level)” value was 8 (Level 8: above 80% growth inhibition rate); the “weed control effect, Digitaria sanguinalis (level)” value stood at 10; the “weed control effect, Echinochloa crus-galli (level)” value was 10. Also, in data set [1] (60 g/ha), the “weed control effect, Rorippa indica (level)” value amounted to 10 and the “weed control effect, Setaria viridis (level)” value was 7 (Level 7: above 70% growth inhibition rate). In addition, in data set [2] (60 g/ha), the “effect on crop, corn (level)” value is reported as 0; the “effect on crop, rice (level)” value is reported as 1 (Level 1: above 1-10% growth inhibition rate); the “effect on crop, wheat (level)” value is recorded as 0. Also, in the data set with Scirpus juncoides (application rate 60 g/ha), the “Weed control effect, Scirpus juncoides” value turned out to be 10. Also, the “Weed control effect, Monochoria vaginalis (activity level)” value in the data set with Monochoria vaginalis (application rate 60 g/ha) was determined as 10. The “Weed control effect, Echinochloa crus-galli (activity level)” value with Echinochloa crus-galli (application rate 60 g/ha) is 9 (Level 9: above 90% growth inhibition rate). The “Rice (safety, activity level)” value in the data set on Rice (application rate 60 g/ha) worked out at 0.
In the case of `Cc1nn(C)cc1C(=O)Oc1c(C(=O)c2ccc(S(C)(=O)=O)c(COCC(F)F)c2Cl)cnn1C` [Compound 40], in data set [1] (30 g/ha), the “weed control effect, Abutilon theophrasti (level)” value is 7 (Level 7: above 70% growth inhibition rate); the “weed control effect, Bidens pilosa (level)” value was 7 (Level 7: above 70% growth inhibition rate); the “weed control effect, Digitaria sanguinalis (level)” value was found to be 10; the “weed control effect, Echinochloa crus-galli (level)” value is on record as 10. For the same molecule, in data set [1] (30 g/ha), the “weed control effect, Rorippa indica (level)” value was found to be 10 and the “weed control effect, Setaria viridis (level)” value is 9 (Level 9: above 90% growth inhibition rate). In data set [2] (30 g/ha), the “effect on crop, corn (level)” value turned out to be 0; the “effect on crop, rice (level)” value is listed as 5 (Level 5: above 50% growth inhibition rate); the “effect on crop, wheat (level)” value is on record as 0. In the data set on Scirpus juncoides (application rate 60 g/ha), the “Weed control effect, Scirpus juncoides” value is on record as 9 (Level 9: above 90% growth inhibition rate). For the same molecule, the “Weed control effect, Monochoria vaginalis (activity level)” value in the data set with Monochoria vaginalis (application rate 60 g/ha) is recorded as 9 (Level 9: above 90% growth inhibition rate). In addition, the “Weed control effect, Echinochloa crus-galli (activity level)” value in the data set on Echinochloa crus-galli (application rate 60 g/ha) was 10. Moreover, in the data set on Rice (application rate 60 g/ha), the “Rice (safety, activity level)” value came out at 0.
Turning to `CCOCc1c(S(C)(=O)=O)ccc(C(=O)c2c(C3CC3)nn(C)c2OC(=O)c2cn(C)nc2C)c1Cl` [Compound 46], in data set [1] (30 g/ha), the “weed control effect, Abutilon theophrasti (level)” value is reported as 7 (Level 7: above 70% growth inhibition rate); the “weed control effect, Bidens pilosa (level)” value is on record as 7 (Level 7: above 70% growth inhibition rate); the “weed control effect, Digitaria sanguinalis (level)” value is listed as 10; the “weed control effect, Echinochloa crus-galli (level)” value is 10. In addition, in data set [1] (30 g/ha), the “weed control effect, Rorippa indica (level)” value was 10 and the “weed control effect, Setaria viridis (level)” value amounted to 10. In addition, in data set [2] (30 g/ha), the “effect on crop, corn (level)” value is 1 (Level 1: above 1-10% growth inhibition rate); the “effect on crop, rice (level)” value is listed as 3 (Level 3: above 20% growth inhibition rate); the “effect on crop, wheat (level)” value stood at 0. Moreover, the “Weed control effect, Scirpus juncoides” value in the data set with Scirpus juncoides (application rate 60 g/ha) is 9 (Level 9: above 90% growth inhibition rate). Further, the “Weed control effect, Monochoria vaginalis (activity level)” value in the data set on Monochoria vaginalis (application rate 60 g/ha) is 9 (Level 9: above 90% growth inhibition rate). Moreover, the “Weed control effect, Echinochloa crus-galli (activity level)” value with Echinochloa crus-galli (application rate 60 g/ha) is listed as 8 (Level 8: above 80% growth inhibition rate). In addition, in the data set on Rice (application rate 60 g/ha), the “Rice (safety, activity level)” value was 0.
With `COCc1c(S(C)(=O)=O)ccc(C(=O)c2c(C3CC3)nn(C)c2OC(=O)c2cn(C)nc2C)c1Cl` [Compound 51], in data set [1] (30 g/ha), the “weed control effect, Abutilon theophrasti (level)” value is 7 (Level 7: above 70% growth inhibition rate); the “weed control effect, Bidens pilosa (level)” value was 7 (Level 7: above 70% growth inhibition rate); the “weed control effect, Digitaria sanguinalis (level)” value is on record as 10; the “weed control effect, Echinochloa crus-galli (level)” value turned out to be 10. Further, in data set [1] (30 g/ha), the “weed control effect, Rorippa indica (level)” value was found to be 10 and the “weed control effect, Setaria viridis (level)” value was 10. Further, in data set [2] (30 g/ha), the “effect on crop, corn (level)” value was 4 (Level 4: above 30% growth inhibition rate); the “effect on crop, rice (level)” value is reported as 3 (Level 3: above 20% growth inhibition rate); the “effect on crop, wheat (level)” value was 0. In the data set with Scirpus juncoides (application rate 60 g/ha), the “Weed control effect, Scirpus juncoides” value is 9 (Level 9: above 90% growth inhibition rate). Further, the “Weed control effect, Monochoria vaginalis (activity level)” value with Monochoria vaginalis (application rate 60 g/ha) was 10. For the same molecule, in the data set with Echinochloa crus-galli (application rate 60 g/ha), the “Weed control effect, Echinochloa crus-galli (activity level)” value amounted to 10. The “Rice (safety, activity level)” value in the data set with Rice (application rate 60 g/ha) is listed as 0.
